The results in this text go back to patent publication US8901118B2, “Compounds and methods for kinase modulation, and indications therefor” (Plexxikon Inc., priority 2010, dated 2014).

One data set has as its target T1, BCR-NTRK2 BaF3 cells (Homo sapiens, UniProt Q16620).
T1 construct: fused on or other part: P11274 (Breakpoint cluster region protein)
The data set is described as follows: BaF3 BCR-NTRK2 cell proliferation assay (ATPlite). The note with it: read-out: Inhibition of Cell Proliferation IC50, BCR/BaF3 TrkB. Type of data set: cell-based. The gist of the method: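 Growth inhibition over 3 days at 37 °C; IC50 from ATPlite luminescence, 8 concentrations (1:3 steps, max 10 μM). BaF3 fusion lines were tested without IL-3.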
On the technique in general: ATP-based viability assays read luminescence as a measure of living cells.

A short description of data set [1]: Relative solubility by turbidity in aqueous buffers (pH 1.5, 4.5, 6.8, 7.4). Type of data set: physicochemical. The note with it: for turbidity threshold (L, M, H) 1.4: pH 1.5 (SGF); for turbidity threshold (L, M, H) 4.5: pH 4.5 (SIF); for turbidity threshold (L, M, H) 6.8: pH 6.8 (SIF); for turbidity threshold (L, M, H) 7.4: pH 7.4 (HEPES). The gist of the method: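 Twofold DMSO dilutions of a 25 mM stock were spiked into SGF (0.5M NaCl, pH 1.5), SIF (0.05M NaH2PO4, pH 4.5 and 6.8) or HEPES buffer (10 mM HEPES, 150 mM NaCl, pH 7.4). Absorbance was read at 490, 535 and 650 nm. The endpoint is the concentration crossing O.D. 0.01, averaged across wavelengths.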

SMILES strings stand for the structures.

T1 sequence (Q16620 538-807): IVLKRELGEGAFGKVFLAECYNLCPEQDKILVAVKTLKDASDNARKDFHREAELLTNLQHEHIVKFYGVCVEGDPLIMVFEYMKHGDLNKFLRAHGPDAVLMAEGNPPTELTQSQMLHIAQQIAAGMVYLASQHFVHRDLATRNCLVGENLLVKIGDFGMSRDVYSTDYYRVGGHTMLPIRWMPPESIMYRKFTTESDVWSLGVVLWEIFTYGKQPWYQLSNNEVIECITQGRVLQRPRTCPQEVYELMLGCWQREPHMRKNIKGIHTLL

Consider `CNc1ncnc2[nH]cc(C(=O)c3ccc(Nc4ccc(OC)nc4)nc3F)c12` [Compound P-4083, [2-fluoro-6-[(6-methoxy-3-pyridyl)amino]-3-pyridyl]-[4-(methylamino)-7H-pyrrolo[2,3-d]pyrimidin-5-yl]methanone], for which the IC50 on BCR-NTRK2 BaF3 cells is below 10 nM. Besides, in data set [1], the “turbidity threshold (L, M, H) 1.4” value was “M (moderate solubility if the threshold concentration is 31.3 μM to 250 μM)”; the “turbidity threshold (L, M, H) 4.5” value is “M (moderate solubility if the threshold concentration is 31.3 μM to 250 μM)”; the “turbidity threshold (L, M, H) 6.8” value is “M (moderate solubility if the threshold concentration is 31.3 μM to 250 μM)”; the “turbidity threshold (L, M, H) 7.4” value is given as “H (high solubility if the threshold concentration is >250 μm)”.
In the case of `COc1ccc(Nc2ccc(C(=O)c3c[nH]c4ncnc(NCC(F)(F)F)c34)c(F)n2)cn1` [Compound P-4084, [2-fluoro-6-[(6-methoxy-3-pyridyl)amino]-3-pyridyl]-[4-(2,2,2-trifluoroethylamino)-7H-pyrrolo[2,3-d]pyrimidin-5-yl]methanone], the IC50 on BCR-NTRK2 BaF3 cells is below 10 nM. Further, in data set [1], the “turbidity threshold (L, M, H) 1.4” value is reported as “M (moderate solubility if the threshold concentration is 31.3 μM to 250 μM)”; the “turbidity threshold (L, M, H) 4.5” value is on record as “M (moderate solubility if the threshold concentration is 31.3 μM to 250 μM)”; the “turbidity threshold (L, M, H) 6.8” value is “M (moderate solubility if the threshold concentration is 31.3 μM to 250 μM)”; the “turbidity threshold (L, M, H) 7.4” value is “H (high solubility if the threshold concentration is >250 μm)”.
Regarding `O=C(c1ccc(NC2CCC(F)(F)CC2)nc1)c1c[nH]c2ncnc(NCC(F)(F)F)c12` [Compound P-4087, [6-[(4,4-difluorocyclohexyl)amino]-3-pyridyl]-[4-(2,2,2-trifluoroethylamino)-7H-pyrrolo[2,3-d]pyrimidin-5-yl]methanone], the IC50 on BCR-NTRK2 BaF3 cells was below 100 nM. Moreover, in data set [1], the “turbidity threshold (L, M, H) 1.4” value was “H (high solubility if the threshold concentration is >250 μm)”; the “turbidity threshold (L, M, H) 4.5” value is listed as “M (moderate solubility if the threshold concentration is 31.3 μM to 250 μM)”; the “turbidity threshold (L, M, H) 6.8” value is on record as “M (moderate solubility if the threshold concentration is 31.3 μM to 250 μM)”; the “turbidity threshold (L, M, H) 7.4” value is recorded as “M (moderate solubility if the threshold concentration is 31.3 μM to 250 μM)”.
On to `O=C(c1ccc(NC2CCC(F)(F)CC2)nc1)c1c[nH]c2ncnc(NC3CC3)c12` [Compound P-4088, [4-(cyclopropylamino)-7H-pyrrolo[2,3-d]pyrimidin-5-yl]-[6-[(4,4-difluorocyclohexyl)amino]-3-pyridyl]methanone], for which the IC50 at BCR-NTRK2 BaF3 cells was below 100 nM. In data set [1], the “turbidity threshold (L, M, H) 1.4” value is on record as “H (high solubility if the threshold concentration is >250 μm)”; the “turbidity threshold (L, M, H) 4.5” value is “M (moderate solubility if the threshold concentration is 31.3 μM to 250 μM)”; the “turbidity threshold (L, M, H) 6.8” value is reported as “M (moderate solubility if the threshold concentration is 31.3 μM to 250 μM)”; the “turbidity threshold (L, M, H) 7.4” value is “M (moderate solubility if the threshold concentration is 31.3 μM to 250 μM)”.
`CNc1ncnc2[nH]cc(C(=O)c3ccc(NC4CCC(F)(F)CC4)nc3)c12` [Compound P-4089, [6-[(4,4-difluorocyclohexyl)amino]-3-pyridyl]-[4-(methylamino)-7H-pyrrolo[2,3-d]pyrimidin-5-yl]methanone]: the IC50 on BCR-NTRK2 BaF3 cells was below 100 nM. Moreover, in data set [1], the “turbidity threshold (L, M, H) 1.4” value is recorded as “H (high solubility if the threshold concentration is >250 μm)”; the “turbidity threshold (L, M, H) 4.5” value is on record as “M (moderate solubility if the threshold concentration is 31.3 μM to 250 μM)”; the “turbidity threshold (L, M, H) 6.8” value is recorded as “M (moderate solubility if the threshold concentration is 31.3 μM to 250 μM)”; the “turbidity threshold (L, M, H) 7.4” value was “M (moderate solubility if the threshold concentration is 31.3 μM to 250 μM)”.
In the case of `O=C(c1ccc(Nc2ccc(C(F)(F)F)nc2)nc1F)c1c[nH]c2ncnc(NC3CC3)c12` [Compound P-4091, [4-(cyclopropylamino)-7H-pyrrolo[2,3-d]pyrimidin-5-yl]-[2-fluoro-6-[[6-(trifluoromethyl)-3-pyridyl]amino]-3-pyridyl]methanone], the IC50 at BCR-NTRK2 BaF3 cells was below 10 nM. Further, in data set [1], the “turbidity threshold (L, M, H) 1.4” value is “H (high solubility if the threshold concentration is >250 μm)”; the “turbidity threshold (L, M, H) 4.5” value is “M (moderate solubility if the threshold concentration is 31.3 μM to 250 μM)”; the “turbidity threshold (L, M, H) 6.8” value was “M (moderate solubility if the threshold concentration is 31.3 μM to 250 μM)”; the “turbidity threshold (L, M, H) 7.4” value was “M (moderate solubility if the threshold concentration is 31.3 μM to 250 μM)”.
On to `CNc1ncnc2[nH]cc(C(=O)c3ccc(Nc4ccc(C(F)(F)F)nc4)nc3F)c12` [Compound P-4092, [2-fluoro-6-[[6-(trifluoromethyl)-3-pyridyl]amino]-3-pyridyl]-[4-(methylamino)-7H-pyrrolo[2,3-d]pyrimidin-5-yl]methanone], for which the IC50 on BCR-NTRK2 BaF3 cells was below 10 nM. For the same compound, in data set [1], the “turbidity threshold (L, M, H) 1.4” value was “M (moderate solubility if the threshold concentration is 31.3 μM to 250 μM)”; the “turbidity threshold (L, M, H) 4.5” value was “M (moderate solubility if the threshold concentration is 31.3 μM to 250 μM)”; the “turbidity threshold (L, M, H) 6.8” value is reported as “M (moderate solubility if the threshold concentration is 31.3 μM to 250 μM)”; the “turbidity threshold (L, M, H) 7.4” value is recorded as “M (moderate solubility if the threshold concentration is 31.3 μM to 250 μM)”.
`O=C(c1ccc(Nc2ccc(C3CC3)nc2)nc1F)c1c[nH]c2ncnc(NC3CC3)c12` [Compound P-4093, [4-(cyclopropylamino)-7H-pyrrolo[2,3-d]pyrimidin-5-yl]-[6-[(6-cyclopropyl-3-pyridyl)amino]-2-fluoro-3-pyridyl]methanone]: the IC50 on BCR-NTRK2 BaF3 cells was below 10 nM. Moreover, in data set [1], the “turbidity threshold (L, M, H) 1.4” value is recorded as “H (high solubility if the threshold concentration is >250 μm)”; the “turbidity threshold (L, M, H) 4.5” value is recorded as “L (low solubility if the threshold concentration is <31.3 μM)”; the “turbidity threshold (L, M, H) 6.8” value is reported as “L (low solubility if the threshold concentration is <31.3 μM)”; the “turbidity threshold (L, M, H) 7.4” value is recorded as “L (low solubility if the threshold concentration is <31.3 μM)”.
For the compound `CNc1ncnc2[nH]cc(C(=O)c3ccc(Nc4ccc(C5CC5)nc4)nc3F)c12` [Compound P-4094, [6-[(6-cyclopropyl-3-pyridyl)amino]-2-fluoro-3-pyridyl]-[4-(methylamino)-7H-pyrrolo[2,3-d]pyrimidin-5-yl]methanone], the IC50 at BCR-NTRK2 BaF3 cells was below 10 nM. In addition, in data set [1], the “turbidity threshold (L, M, H) 1.4” value was “H (high solubility if the threshold concentration is >250 μm)”; the “turbidity threshold (L, M, H) 4.5” value is “L (low solubility if the threshold concentration is <31.3 μM)”; the “turbidity threshold (L, M, H) 6.8” value is listed as “M (moderate solubility if the threshold concentration is 31.3 μM to 250 μM)”; the “turbidity threshold (L, M, H) 7.4” value is recorded as “M (moderate solubility if the threshold concentration is 31.3 μM to 250 μM)”.
`CCc1ccc(Nc2ccc(C(=O)c3c[nH]c4ncnc(NC5CCC5)c34)c(F)n2)cn1` [Compound P-4095, [4-(cyclobutylamino)-7H-pyrrolo[2,3-d]pyrimidin-5-yl]-[6-[(6-ethyl-3-pyridyl)amino]-2-fluoro-3-pyridyl]methanone]: the IC50 at BCR-NTRK2 BaF3 cells was below 10 nM. Further, in data set [1], the “turbidity threshold (L, M, H) 1.4” value is recorded as “M (moderate solubility if the threshold concentration is 31.3 μM to 250 μM)”; the “turbidity threshold (L, M, H) 4.5” value is “M (moderate solubility if the threshold concentration is 31.3 μM to 250 μM)”; the “turbidity threshold (L, M, H) 6.8” value is reported as “M (moderate solubility if the threshold concentration is 31.3 μM to 250 μM)”; the “turbidity threshold (L, M, H) 7.4” value is recorded as “M (moderate solubility if the threshold concentration is 31.3 μM to 250 μM)”.
For the compound `CCc1ccc(Nc2ccc(C(=O)c3c[nH]c4ncnc(NC5CCC(F)(F)CC5)c34)c(F)n2)cn1` [Compound P-4096, [4-[(4,4-difluorocyclohexyl)amino]-7H-pyrrolo[2,3-d]pyrimidin-5-yl]-[6-[(6-ethyl-3-pyridyl)amino]-2-fluoro-3-pyridyl]methanone], the IC50 at BCR-NTRK2 BaF3 cells was below 10 nM. In data set [1], the “turbidity threshold (L, M, H) 1.4” value was “H (high solubility if the threshold concentration is >250 μm)”; the “turbidity threshold (L, M, H) 4.5” value is on record as “L (low solubility if the threshold concentration is <31.3 μM)”; the “turbidity threshold (L, M, H) 6.8” value was “L (low solubility if the threshold concentration is <31.3 μM)”; the “turbidity threshold (L, M, H) 7.4” value is given as “L (low solubility if the threshold concentration is <31.3 μM)”.
On to `CCc1ccc(Nc2ccc(C(=O)c3c[nH]c4ncnc(N[C@@H](C)c5ccc(F)cc5)c34)c(F)n2)cn1` [Compound P-4097, [6-[(6-ethyl-3-pyridyl)amino]-2-fluoro-3-pyridyl]-[4-[[(1S)-1-(4-fluorophenyl)ethyl]amino]-7H-pyrrolo[2,3-d]pyrimidin-5-yl]methanone], for which the IC50 at BCR-NTRK2 BaF3 cells is below 100 nM. Moreover, in data set [1], the “turbidity threshold (L, M, H) 1.4” value is “M (moderate solubility if the threshold concentration is 31.3 μM to 250 μM)”; the “turbidity threshold (L, M, H) 4.5” value is “L (low solubility if the threshold concentration is <31.3 μM)”; the “turbidity threshold (L, M, H) 6.8” value is “L (low solubility if the threshold concentration is <31.3 μM)”; the “turbidity threshold (L, M, H) 7.4” value is given as “L (low solubility if the threshold concentration is <31.3 μM)”.
